Measurements taken from US20080261994A1, “CYCLOPROPANE COMPOUNDS AND PHARMACEUTICAL USE THEREOF” (Japan Tobacco Inc., priority 2003, published 2008).
pIC50: −log10 of the molar value. Read-outs that look alike come from different tables or passages of the source.

How the values were obtained:
aggrecanase-1 = target: T1, aggrecanase-1 (Homo sapiens, UniProt O75173); test: Aggrecanase-1 inhibitory action (Particle Assay, GAG release from aggrecan-containing polyacrylamide particles); type: biochemical
T1 sequence (O75173 213-837): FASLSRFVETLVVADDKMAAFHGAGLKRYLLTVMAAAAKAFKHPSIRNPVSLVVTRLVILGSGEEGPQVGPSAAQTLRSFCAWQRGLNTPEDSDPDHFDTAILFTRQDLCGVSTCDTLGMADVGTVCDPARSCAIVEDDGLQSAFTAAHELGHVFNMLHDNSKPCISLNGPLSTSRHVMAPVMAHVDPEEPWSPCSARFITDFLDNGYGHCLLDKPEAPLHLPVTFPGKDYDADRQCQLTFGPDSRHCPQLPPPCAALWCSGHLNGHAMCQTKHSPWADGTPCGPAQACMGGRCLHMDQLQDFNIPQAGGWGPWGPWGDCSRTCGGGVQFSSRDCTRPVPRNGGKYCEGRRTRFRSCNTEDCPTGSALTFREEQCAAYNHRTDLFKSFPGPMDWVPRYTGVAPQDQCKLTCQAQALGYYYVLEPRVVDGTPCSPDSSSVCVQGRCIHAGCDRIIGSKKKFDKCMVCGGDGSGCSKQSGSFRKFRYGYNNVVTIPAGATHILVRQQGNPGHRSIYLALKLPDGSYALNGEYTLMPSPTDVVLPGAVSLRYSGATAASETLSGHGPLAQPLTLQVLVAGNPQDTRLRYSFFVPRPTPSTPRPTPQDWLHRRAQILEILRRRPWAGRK
Protocol: Particle Assay was used for determination of aggrecanase activity.
(§1) The enzyme and substrate were diluted with Tris-HCl buffer, and test compounds were diluted with dimethyl sulfoxide (DMSO).
Test compounds and the enzyme were added into 96-well plate, and polyacrylamide particles containing aggrecan were added as a substrate and the mixture was incubated at 37° C. for 15 hr.
After incubation, the supernatant was transferred to another plate, and mixed with 1,9-dimethylmethylene blue. The absorbence at 595 nm was measured to quantify the amount of glycosaminoglycan (GAG) released in the reaction supernatant. Whale chondroitin sulfate was used as the standard of GAG. The inhibitory activity of the compound in each well (%) was calculated based on the values of enzyme-free well and inhibitor-free well. The inhibitory activity of the compound was represented as […] (μM).

MMP-1 = target: T2, MMP-1 (Homo sapiens, UniProt P03956); test: MMP-1 inhibitory action (Type I collagen Activity Measurement kit, FITC-labeled collagen type I); type: biochemical
T2 sequence (P03956 100-469): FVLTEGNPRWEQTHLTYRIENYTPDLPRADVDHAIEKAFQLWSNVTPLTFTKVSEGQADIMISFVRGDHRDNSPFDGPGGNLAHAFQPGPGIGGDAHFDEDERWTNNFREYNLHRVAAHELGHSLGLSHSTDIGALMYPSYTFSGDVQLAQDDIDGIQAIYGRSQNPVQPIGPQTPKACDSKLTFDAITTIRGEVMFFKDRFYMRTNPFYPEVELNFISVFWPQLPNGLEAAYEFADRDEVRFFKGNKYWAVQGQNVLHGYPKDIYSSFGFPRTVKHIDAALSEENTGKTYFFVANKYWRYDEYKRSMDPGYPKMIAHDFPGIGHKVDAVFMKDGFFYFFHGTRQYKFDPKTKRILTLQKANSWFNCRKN
Protocol: For MMP-1 Assay, Type I collagen Activity Measurement kit (YAGAI YU-72013) modified to a 96-well plate format was used.
The principle of the kit is based on the property of collagen that becomes soluble in ethanol after being cleaved by MMP-1.
as §1
The enzyme and test compounds were added into 96-well plate, and fluorescein isothiocianate (FITC)-labeled collagen type I was added as a substrate and the mixture was incubated at 37° C. for 3 hr.
The reaction was terminated by addition of Tris-HCl buffer containing ethanol. After centrifugation, the supernatant containing denatured substrate was transferred to another 96-well plate. The collagenase activity of MMP-1 was determined by measuring FITC fluorescence intensity (excitation wavelength 485 nm, emission wavelength 530 nm) of each well. The inhibitory activity of the compound in each well (%) was calculated based on the values of enzyme-free well and inhibitor-free well. The inhibitory activity of the compound was represented as IC50 (μM).

[1] = Experimental Example 1, read-out: IC50 AG1
[2] = Experimental Example 2, read-out: IC50 MMP1
[3] = aggrecanase-1 inhibitory action, read-out: IC50 AG1 (Experimental Example 1)
[4] = MMP-1 inhibitory action, FITC-labeled collagen type I, 37° C. for 3 hr, read-out: IC50 MMP1 (Experimental Example 2)

CC1[C@H](c2ccccc2)[C@]1(NS(=O)(=O)c1ccc(-c2ccc3[nH]c(=O)sc3c2)s1)C(=O)O (stereo partly shown) [Example 2-468]
pIC50 (aggrecanase-1; [1]): > 6.00
pIC50 (MMP-1; [2]): ≤ 6.00

O=C(O)[C@]1(NS(=O)(=O)c2ccc(-c3cc4ccccc4o3)s2)C[C@@H]1c1ccccc1 [Example 2-122]
pIC50 (aggrecanase-1; [3]): ≤ 6.00
pIC50 (MMP-1; [4]): > 6.00

O=C(O)[C@]1(NS(=O)(=O)c2cnc(-c3ccc(Cl)cc3)s2)C[C@@H]1c1ccccc1 [Example 1-100]
pIC50 (aggrecanase-1; [3]): > 6.00
pIC50 (MMP-1; [4]): ≤ 6.00

Cc1nc2cc(-c3ccc(S(=O)(=O)N[C@@]4(C(=O)O)C(C)[C@@H]4c4ccccc4)s3)ccc2s1 (stereo partly shown) [Example 2-469]
pIC50 (aggrecanase-1; [1]): ≤ 6.00
pIC50 (MMP-1; [2]): ≤ 5.00

O=C(COc1ccccc1C1CC1(NS(=O)(=O)c1ccc(-c2ccc(Cl)cc2)s1)C(=O)O)N1CCOCC1 (stereo not shown) [Example 1-146]
pIC50 (aggrecanase-1; [3]): > 7.00
pIC50 (MMP-1; [4]): ≤ 5.00

CC1[C@](C)(c2ccccc2)[C@]1(NS(=O)(=O)c1ccc(-c2cc(C(C)(F)F)on2)s1)C(=O)O (stereo partly shown) [Example 2-625]
pIC50 (aggrecanase-1; [1]): > 7.00

O=C(O)C1(NS(=O)(=O)c2ccc3c(c2)Cc2cc(F)ccc2-3)CC1c1ccccc1 (stereo not shown) [Example 1-80]
pIC50 (aggrecanase-1; [3]): > 7.00
pIC50 (MMP-1; [4]): ≤ 5.00

NC(=O)COc1cccc(C2CC2(NS(=O)(=O)c2ccc(-c3ccc(Cl)cc3)cc2)C(=O)O)c1 (stereo not shown) [Example 1-117]
pIC50 (aggrecanase-1; [3]): > 7.00
pIC50 (MMP-1; [4]): ≤ 6.00

C[C@]1(c2ccccc2)C[C@@]1(NS(=O)(=O)c1ccc(-c2cccc(OCCCO)c2)s1)C(=O)O [Example 2-576]
pIC50 (aggrecanase-1; [1]): ≤ 6.00

CC(C)NC(=O)COc1ccccc1C1CC1(NS(=O)(=O)c1ccc(-c2ccc(Cl)cc2)s1)C(=O)O (stereo not shown) [Example 1-147]
pIC50 (aggrecanase-1; [3]): > 6.00
pIC50 (MMP-1; [4]): ≤ 5.00

Cc1cnc(-c2ccc(S(=O)(=O)N[C@@]3(C(=O)O)C[C@]3(C)c3ccccc3)s2)o1 [Example 2-418]
pIC50 (aggrecanase-1; [1]): ≤ 6.00
pIC50 (MMP-1; [2]): ≤ 6.00

NC(=O)Nc1cccc(C2CC2(NS(=O)(=O)c2ccc(-c3ccc(Cl)cc3)s2)C(=O)O)c1 (stereo not shown) [Example 1-135]
pIC50 (aggrecanase-1; [3]): > 6.00
pIC50 (MMP-1; [4]): ≤ 6.00

CN(C)c1cccc(C2CC2(NS(=O)(=O)c2ccc(-c3ccc(Cl)cc3)cc2)C(=O)O)c1 (stereo not shown) [Example 1-21]
pIC50 (aggrecanase-1; [3]): > 6.00
pIC50 (MMP-1; [4]): ≤ 6.00

O=C(O)C1(NS(=O)(=O)N2CCc3nc(-c4ccccc4)ncc3C2)CC1c1ccccc1 (stereo not shown) [Example 2-127]
pIC50 (aggrecanase-1; [3]): ≤ 5.00
pIC50 (MMP-1; [4]): ≤ 5.00

Cc1cnc(-c2ccc(S(=O)(=O)N[C@@]3(C(=O)O)C[C@@H]3c3ccccc3)s2)s1 [Example 2-26]
pIC50 (aggrecanase-1; [3]): > 6.00
pIC50 (MMP-1; [4]): ≤ 5.00

NC(=O)c1cccc(C2CC2(NS(=O)(=O)c2ccc(-c3ccc(Cl)cc3)s2)C(=O)O)c1 (stereo not shown) [Example 1-137]
pIC50 (aggrecanase-1; [3]): > 6.00
pIC50 (MMP-1; [4]): ≤ 6.00

O=C1NCc2ccccc2C2CC12NS(=O)(=O)c1ccc(-c2ccc(Cl)cc2)s1 (stereo not shown) [Example 2-415]
pIC50 (aggrecanase-1; [1]): ≤ 6.00
pIC50 (MMP-1; [2]): ≤ 5.00

COc1cccc(C2CC2(NS(=O)(=O)c2ccc(-c3ccc(Cl)cc3)s2)C(=O)O)c1 (stereo not shown) [Example 1-115]
pIC50 (aggrecanase-1; [3]): > 6.00
pIC50 (MMP-1; [4]): ≤ 6.00

CC(=O)Nc1ccc(-c2ccc(S(=O)(=O)N[C@@]3(C(=O)O)C[C@]3(C)c3ccccc3)s2)cc1 [Example 2-402]
pIC50 (aggrecanase-1; [1]): ≤ 6.00
pIC50 (MMP-1; [2]): ≤ 5.00

O=C(O)C1(NS(=O)(=O)c2ccc(-c3ccc(Cl)cc3)cc2)CC1c1cccc(NCc2ccccc2)c1 (stereo not shown) [Example 1-43]
pIC50 (aggrecanase-1; [3]): > 6.00
pIC50 (MMP-1; [4]): ≤ 6.00

C[C@]1(c2ccccc2)C[C@@]1(NS(=O)(=O)c1ccc(-c2cccc(OCCO)c2)s1)C(=O)O [Example 2-575]
pIC50 (aggrecanase-1; [1]): ≤ 6.00

O=C(O)C1(NS(=O)(=O)c2ccc(OCc3ccc(Cl)cc3Cl)cc2)CC1c1ccccc1 (stereo not shown) [Example 1-65]
pIC50 (MMP-1; [4]): ≤ 5.00

COc1ccc(-c2ccc(S(=O)(=O)N[C@@]3(C(=O)O)C[C@]3(C)c3ccccc3)s2)cc1CO [Example 2-592]
pIC50 (aggrecanase-1; [1]): ≤ 6.00

O=C1O[C@H]([C@H]2C[C@@]2(NS(=O)(=O)c2ccc(-c3ccc(Cl)cc3)s2)C(=O)O)CN1Cc1ccccc1 [Example 2-138]
pIC50 (aggrecanase-1; [3]): ≤ 5.00

COc1cccc([C@@]2(C)C[C@@]2(NS(=O)(=O)c2ccc(-c3cc(C(F)(F)F)on3)s2)C(=O)O)c1 [Example 2-624]
pIC50 (aggrecanase-1; [1]): > 7.00
